Measurements reported in patent US20230167073A1 (Teijin Pharma Limited, priority 2020, published 2023).

The compounds below were run against T1, Human TRPC6 (Homo sapiens, UniProt Q9Y210) (assay: Evaluation of TRPC6 channel inhibitory activity (1), FLIPR Calcium 5 Assay Kit, OAG stimulation (Compound Nos. 1-1293)). Conditions: Human TRPC6 stably-expressing cells, OAG 30 μM, FLIPR Calcium 5 Assay Kit; read-out: Inhibitory activity (pIC50 class) (converted).
T1 construct: expressed in transfected cells
T1 sequence (Q9Y210 1-931): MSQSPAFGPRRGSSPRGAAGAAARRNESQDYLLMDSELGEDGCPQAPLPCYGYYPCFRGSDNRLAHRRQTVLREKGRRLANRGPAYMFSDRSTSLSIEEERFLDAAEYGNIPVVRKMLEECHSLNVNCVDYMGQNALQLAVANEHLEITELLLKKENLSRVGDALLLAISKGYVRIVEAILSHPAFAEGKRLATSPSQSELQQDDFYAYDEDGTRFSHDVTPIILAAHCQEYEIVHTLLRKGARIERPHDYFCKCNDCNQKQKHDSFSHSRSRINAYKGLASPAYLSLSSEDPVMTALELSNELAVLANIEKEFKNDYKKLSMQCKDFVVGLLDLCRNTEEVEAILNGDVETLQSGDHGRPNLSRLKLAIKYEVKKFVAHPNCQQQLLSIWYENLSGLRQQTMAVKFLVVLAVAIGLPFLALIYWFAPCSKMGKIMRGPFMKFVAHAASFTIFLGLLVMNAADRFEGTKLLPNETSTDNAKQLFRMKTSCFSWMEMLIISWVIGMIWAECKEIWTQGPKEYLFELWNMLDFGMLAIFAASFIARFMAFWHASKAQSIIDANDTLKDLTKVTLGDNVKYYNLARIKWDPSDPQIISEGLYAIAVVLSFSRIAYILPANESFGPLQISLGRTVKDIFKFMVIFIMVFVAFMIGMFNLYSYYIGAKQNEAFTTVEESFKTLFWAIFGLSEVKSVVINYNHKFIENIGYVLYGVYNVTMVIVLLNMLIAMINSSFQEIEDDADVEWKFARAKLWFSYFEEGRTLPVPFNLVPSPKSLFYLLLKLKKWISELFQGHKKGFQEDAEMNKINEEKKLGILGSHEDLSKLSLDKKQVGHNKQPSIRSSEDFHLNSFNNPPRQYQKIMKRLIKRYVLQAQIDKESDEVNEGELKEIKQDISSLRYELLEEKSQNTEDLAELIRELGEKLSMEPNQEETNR
Assay type: cell-based
Summary of the method: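 The FLIPR signal is maximum fluorescence after 30 μM OAG minus minimum before compound, measured in a human TRPC6 stable line loaded with Calcium 5 dye. Compounds were preincubated 20 min. pIC50 came from four-parameter logistic fitting of inhibition rates and is given as symbol ranges.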
In the case of `Cn1nc(C2CC2)cc1Oc1cc(C#N)ccc1-c1ccc(CN)nn1` [compound 870, 4-[6-(aminomethyl)pyridazin-3-yl]-3-(5-cyclopropyl-2-methylpyrazol-3-yl)oxybenzonitrile], the IC50 is reported as 0.01 to 1 µM.
With `Cc1cc(Oc2cc(C#N)ccc2-c2ccc(CN)nn2)cc(N2CCOCC2)n1` [compound 871, 4-[6-(aminomethyl)pyridazin-3-yl]-3-(2-methyl-6-morpholin-4-ylpyridin-4-yl)oxybenzonitrile] the IC50 was over 1 µM.
Work on `Cc1cc(Oc2cc(C#N)ccc2-c2ncc([C@H](F)CN)cn2)cc(N2CCOCC2)n1` [compound 872, 4-[5-[(1S)-2-amino-1-fluoroethyl]pyrimidin-2-yl]-3-(2-methyl-6-morpholin-4-ylpyridin-4-yl)oxybenzonitrile] yielded an IC50 of under 0.01 µM.
`CN(CC(F)F)c1cc(Oc2cc(C#N)ccc2-c2ncc(CN)cn2)n(C)n1` [compound 873, 4-[5-(aminomethyl)pyrimidin-2-yl]-3-[5-[2,2-difluoroethyl(methyl)amino]-2-methylpyrazol-3-yl]oxybenzonitrile] gave an IC50 of under 0.01 µM.
Compound `CCN(CC(F)F)c1cc(Oc2cc(C#N)ccc2-c2ncc(CN)cn2)n(C)n1` [compound 874, 4-[5-(aminomethyl)pyrimidin-2-yl]-3-[5-[2,2-difluoroethyl(ethyl)amino]-2-methylpyrazol-3-yl]oxybenzonitrile] has an IC50 of under 0.01 µM.
With `Cc1cc(Oc2cc(C#N)ccc2-c2ncc([C@@H](F)CN)cn2)cc(N2CCOCC2)n1` [compound 876, 4-[5-[(1R)-2-amino-1-fluoroethyl]pyrimidin-2-yl]-3-(2-methyl-6-morpholin-4-ylpyridin-4-yl)oxybenzonitrile] the IC50 was under 0.01 µM.
Work on `Cn1nc(N2CC(F)(F)C(F)(F)C2)cc1Oc1cc(C#N)ccc1-c1ncc(CCN)cn1` [compound 877, 4-[5-(2-aminoethyl)pyrimidin-2-yl]-3-[2-methyl-5-(3,3,4,4-tetrafluoropyrrolidin-1-yl)pyrazol-3-yl]oxybenzonitrile] yielded an IC50 of under 0.01 µM.
For `Cc1nc(Oc2cc(C#N)ccc2-c2ncc([C@@H](F)CN)cn2)cc(N2CCOCC2)n1` [compound 878, 4-[5-[(1R)-2-amino-1-fluoroethyl]pyrimidin-2-yl]-3-(2-methyl-6-morpholin-4-ylpyrimidin-4-yl)oxybenzonitrile], the IC50 was under 0.01 µM.
Work on `Cc1nc(Oc2cc(C#N)ccc2-c2ncc(CCN)cn2)cc(N(C)C2COC2)n1` [compound 879, 4-[5-(2-aminoethyl)pyrimidm-2-yl]-3-[2-methyl-6-[methyl(oxetan-3-yl)amino]pyrimidin-4-yl]oxybenzonitrile] yielded an IC50 of over 1 µM.
Work on `Cc1nc(Oc2cc(C#N)ccc2-c2ncc(CCN)cn2)cc(N2CCCC2=O)n1` [compound 880, 4-[5-(2-aminoethyl)pyrimidin-2-yl]-3-[2-methyl-6-(2-oxopyrrolidin-1-yl)pyrimidin-4-yl]oxybenzonitrile] yielded an IC50 of 0.01 to 1 µM.
`Cc1nc(Oc2cc(C#N)ccc2-c2ncc(CCN)cn2)cc(N2C=NCCC2)n1` [compound 881, 4-[5-(2-aminoethyl)pyrimidin-2-yl]-3-[6-(5,6-dihydro-4H-pyrimidin-1-yl)-2-methylpyrimidin-4-yl]oxybenzonitrile] showed an IC50 of over 1 µM.
`Cc1nc(Oc2cc(C#N)ccc2-c2ncc(CN)cn2)cc(N2CCC2=O)n1` [compound 882, 4-[5-(aminomethyl)pyrimidin-2-yl]-3-[2-methyl-6-(2-oxoazetidin-1-yl)pyrimidin-4-yl]oxybenzonitrile] gave an IC50 of over 1 µM.
With `Cc1nc(OCC2CC2(F)F)cc(Oc2cc(C#N)ccc2-c2ncc(CCN)cn2)n1` (stereo not drawn) [compound 883, 4-[5-(2-aminoethyl)pyrimidin-2-yl]-3-[6-[(2,2-difluorocyclopropyl)methoxy]-2-methylpyrimidin-4-yl]oxybenzonitrile] the IC50 was 0.01 to 1 µM.
`Cc1nc(OCC(F)(F)F)cc(Oc2cc(C#N)ccc2-c2ncc(CCN)cn2)n1` [compound 884, 4-[5-(2-aminoethyl)pyrimidin-2-yl]-3-[2-methyl-6-(2,2,2-trifluoroethoxy)pyrimidin-4-yl]oxybenzonitrile] showed an IC50 of 0.01 to 1 µM.
`Cc1nc(OCC2(C)COC2)cc(Oc2cc(C#N)ccc2-c2ncc(CCN)cn2)n1` [compound 885, 4-[5-(2-aminoethyl)pyrimidin-2-yl]-3-[2-methyl-6-[(3-methyloxetan-3-yl)methoxy]pyrimidin-4-yl]oxybenzonitrile] showed an IC50 of over 1 µM.
`Cc1nc(Oc2cc(C#N)ccc2-c2ncc(CCN)cn2)cc(OC2COC2)n1` [compound 886, 4-[5-(2-aminoethyl)pyrimidin-2-yl]-3-[2-methyl-6-(oxetan-3-yloxy)pyrimidin-4-yl]oxybenzonitrile] gave an IC50 of over 1 µM.
`Cc1nc(Oc2cc(C#N)ccc2-c2ncc(CCN)cn2)cc(OC2CCC2)n1` [compound 887, 4-[5-(2-aminoethyl)pyrimidin-2-yl]-3-(6-cyclobutyloxy-2-methylpyrimidin-4-yl)oxybenzonitrile] gave an IC50 of 0.01 to 1 µM.
In the case of `Cc1nc(Oc2cc(C#N)ccc2-c2ncc(CCN)cn2)cc(O[C@H]2CCOC2)n1` [compound 888, 4-[5-(2-aminoethyl)pyrimidin-2-yl]-3-[2-methyl-6-[(3S)-oxolan-3-yl]oxypyrimidin-4-yl]oxybenzonitrile], the IC50 is reported as 0.01 to 1 µM.
`Cc1nc(Oc2cc(C#N)ccc2-c2ncc(CCN)cn2)cc(O[C@@H]2CCOC2)n1` [compound 889, 4-[5-(2-aminoethyl)pyrimidin-2-yl]-3-[2-methyl-6-[(3R)-oxolan-3-yl]oxypyrimidin-4-yl]oxybenzonitrile] gave an IC50 of over 1 µM.
`COCCOc1cc(Oc2cc(C#N)ccc2-c2ncc(CCN)cn2)nc(C)n1` [compound 890, 4-[5-(2-aminoethyl)pyrimidin-2-yl]-3-[6-(2-methoxyethoxy)-2-methylpyrimidin-4-yl]oxybenzonitrile] was tested, and the IC50 was 0.01 to 1 µM.
With `Cc1nc(OCC(F)F)cc(Oc2cc(C#N)ccc2-c2ncc(CCN)cn2)n1` [compound 891, 4-[5-(2-aminoethyl)pyrimidin-2-yl]-3-[6-(2,2-difluoroethoxy)-2-methylpyrimidin-4-yl]oxybenzonitrile] the IC50 was 0.01 to 1 µM.
With `Cc1nc(Oc2cc(C#N)ccc2-c2ncc(CCN)cn2)cc(OC2CC2)n1` [compound 892, 4-[5-(2-aminoethyl)pyrimidin-2-yl]-3-(6-cyclopropyloxy-2-methylpyrimidin-4-yl)oxybenzonitrile] the IC50 was 0.01 to 1 µM.
In the case of `Cc1nc(OCC(F)(F)F)cc(Oc2cc(C#N)ccc2-c2ncc(CN)cn2)n1` [compound 893, 4-[5-(aminomethyl)pyrimidin-2-yl]-3-[2-methyl-6-(2,2,2-trifluoroethoxy)pyrimidin-4-yl]oxybenzonitrile], the IC50 is reported as over 1 µM.
With `Cc1nc(OCC2(C)COC2)cc(Oc2cc(C#N)ccc2-c2ncc(CN)cn2)n1` [compound 894, 4-[5-(aminomethyl)pyrimidin-2-yl]-3-[2-methyl-6-[(3-methyloxetan-3-yl)methoxy]pyrimidin-4-yl]oxybenzonitrile] the IC50 was over 1 µM.
In the case of `Cc1nc(Oc2cc(C#N)ccc2-c2ncc(CN)cn2)cc(OC2COC2)n1` [compound 895, 4-[5-(aminomethyl)pyrimidin-2-yl]-3-[2-methyl-6-(oxetan-3-yloxy)pyrimidin-4-yl]oxybenzonitrile], the IC50 is reported as over 1 µM.
With `Cc1nc(Oc2cc(C#N)ccc2-c2ncc(CN)cn2)cc(OC(C)C)n1` [compound 896, 4-[5-(aminomethyl)pyrimidin-2-yl]-3-(2-methyl-6-propan-2-yloxypyrimidin-4-yl)oxybenzonitrile] the IC50 was 0.01 to 1 µM.
Compound `Cc1nc(OCC(F)F)cc(Oc2cc(C#N)ccc2-c2ncc(CN)cn2)n1` [compound 897, 4-[5-(aminomethyl)pyrimidin-2-yl]-3-[6-(2,2-difluoroethoxy)-2-methylpyrimidin-4-yl]oxybenzonitrile] has an IC50 of over 1 µM.
For `Cc1nc(Oc2cc(C#N)ccc2-c2ncc(CN)cn2)cc(OC2CC2)n1` [compound 898, 4-[5-(aminomethyl)pyrimidin-2-yl]-3-(6-cyclopropyloxy-2-methylpyrimidin-4-yl)oxybenzonitrile], the IC50 was over 1 µM.
`Cc1cc(Oc2cc(C#N)c(C)cc2-c2ncc(CN)cn2)cc(N2CCOCC2)n1` [compound 899, 4-[5-(aminomethyl)pyrimidin-2-yl]-2-methyl-5-(2-methyl-6-morpholin-4-ylpyridin-4-yl)oxybenzonitrile] showed an IC50 of 0.01 to 1 µM.
With `Cc1cc(Oc2cc(C#N)c(C)cc2-c2ncc(CCN)cn2)cc(N2CCOCC2)n1` [compound 900, 4-[5-(2-aminoethyl)pyrimidin-2-yl]-2-methyl-5-(2-methyl-6-morpholin-4-ylpyridin-4-yl)oxybenzonitrile] the IC50 was under 0.01 µM.
